Patent US20240279215A1 (Cytokinetics, Incorporated, priority 2022, published 2024)

Biological target: human NAMPT (Homo sapiens (Human), UniProt P43490)
Assay: NMN fluorescence biochemical assay (human recombinant NAMPT enzyme assay)
Procedure, shortened: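 Activation of recombinant human NAMPT (6 nM) was tested with 2.5 mM ATP, 20 μM PRPP and 150 μM nicotinamide in 50 mM HEPES pH 7.2 for 60 min at ambient temperature. NMN was derivatized with acetophenone/KOH/formic acid and read by fluorescence (355/460 nm) after 40 min.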

human NAMPT, sequence (P43490 whole entry): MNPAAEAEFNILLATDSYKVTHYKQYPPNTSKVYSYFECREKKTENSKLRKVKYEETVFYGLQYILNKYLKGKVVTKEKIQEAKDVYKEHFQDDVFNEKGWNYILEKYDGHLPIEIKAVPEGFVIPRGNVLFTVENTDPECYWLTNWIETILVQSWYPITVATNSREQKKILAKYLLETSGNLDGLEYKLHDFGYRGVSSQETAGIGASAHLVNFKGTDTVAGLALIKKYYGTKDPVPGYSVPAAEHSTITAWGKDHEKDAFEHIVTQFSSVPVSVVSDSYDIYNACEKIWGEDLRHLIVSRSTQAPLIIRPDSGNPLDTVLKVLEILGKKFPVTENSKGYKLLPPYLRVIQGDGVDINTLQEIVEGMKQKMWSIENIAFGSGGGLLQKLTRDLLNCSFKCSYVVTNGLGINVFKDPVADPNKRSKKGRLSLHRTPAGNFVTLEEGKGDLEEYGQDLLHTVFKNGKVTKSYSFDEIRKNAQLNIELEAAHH

SMILES	AC1.4 Human [µM]	EC50 [µM]
O=C(Nc1ccc(C2CCN(C3COC3)CC2)cc1)OCc1cnco1 [Compound 313, 1,3-oxazol-5-ylmethyl N-{4-[1-(oxetan-3-yl)piperidin-4-yl]phenyl}carbamate]	5.55	25.6
Cn1nccc1Cc1ccc(NC(=O)OCc2ccc(Cl)cc2)cc1 [Compound 314, 4-chlorobenzyl (4-((1-methyl-1H-pyrazol-5-yl)methyl)phenyl)carbamate]	5.75	38.3
Cn1cc(CC(=O)NCc2ccc(NC(=O)OCc3ccc(Cl)cc3)cc2)cn1 [Compound 315, (4-chlorophenyl)methyl N-(4-{[2-(1-methylpyrazol-4-yl)acetamido]methyl}phenyl)carbamate]	5.91	7.32
O=C(Nc1ccc(CC2CCN(C3COC3)CC2)cc1)OCc1ccncc1 [Compound 316]	6.04	28.6
O=C(Nc1ccc(CC(=O)N2CC[C@@H](O)C2)cc1)OCc1ccc(Cl)cc1 [Compound 317, (4-chlorophenyl)methyl N-(4-{2-[(3R)-3-hydroxypyrrolidin-1-yl]-2-oxoethyl}phenyl)carbamate]	6.19	32.4
COc1ccc(COC(=O)Nc2ccc(CN3CCN(C4COC4)CC3)cc2)cc1 [Compound 318, (4-methoxyphenyl)methyl N-(4-{[4-(oxetan-3-yl)piperazin-1-yl]methyl}phenyl)carbamate]	6.26	56.8
O=C(Nc1ccc(CC(=O)N2CC[C@H](O)C2)cc1)OCc1ccc(Cl)cc1 [Compound 319, (4-chlorophenyl)methyl N-(4-{2-[(3S)-3-hydroxypyrrolidin-1-yl]-2-oxoethyl}phenyl)carbamate]	6.50	40.8
O=C(Nc1ccc(CC2CCNCC2)cc1)OCc1cnco1 [Compound 320, oxazol-5-ylmethyl (4-(piperidin-4-ylmethyl)phenyl)carbamate]	6.60	34.2
Cc1ocnc1C(=O)NCc1ccc(NC(=O)OCc2ccc(Cl)cc2)cc1 [Compound 321, (4-chlorophenyl)methyl N-(4-{[(5-methyl-1,3-oxazol-4-yl)formamido]methyl}phenyl)carbamate]	6.86	55.7
Cc1nnc(Cc2ccc(NC(=O)OCc3ccc(Cl)cc3)cc2)o1 [Compound 322, (4-chlorophenyl)methyl N-{4-[(5-methyl-1,3,4-oxadiazol-2-yl)methyl]phenyl}carbamate]	7.23	39.3
Cc1ccc(CNC(=O)Cc2ccc(NC(=O)OCc3ccc(Cl)cc3)cc2)cn1 [Compound 323, (4-chlorophenyl)methyl N-[4-({[(6-methylpyridin-3-yl)methyl]carbamoyl}methyl)phenyl]carbamate]	7.41	13.3
COc1ccc(COC(=O)Nc2ccc(CN3CC(S(C)(=O)=O)C3)cc2)cc1 [Compound 324, (4-methoxyphenyl)methyl N-{4-[(3-methanesulfonylazetidin-1-yl)methyl]phenyl}carbamate]	7.47	50.9
COc1ccc(COC(=O)Nc2ccc(CN3CCN(C)C(=O)C3)cc2)cc1 [Compound 325, (4-methoxyphenyl)methyl N-{4-[(4-methyl-3-oxopiperazin-1-yl)methyl]phenyl}carbamate]	7.87	51.1
O=C(Nc1ccc(Cc2ccncc2)cc1)OCc1ccnnc1 [Compound 326, pyridazin-4-ylmethyl (4-(pyridin-4-ylmethyl)phenyl)carbamate]	8.05	31.9
O=C(Nc1ccc(CNC(=O)c2ccnn2C2CCC2)cc1)OCc1ccc(Cl)cc1 [Compound 327, (4-chlorophenyl)methyl N-(4-{[(2-cyclobutylpyrazol-3-yl)formamido]methyl}phenyl)carbamate]	8.21	21.1
Cc1ccc(Cc2ccc(NC(=O)OCc3ccc(C(F)F)cc3)cc2)cn1 [Compound 328, (4-(difluoro-13-methyl)phenyl)methyl (4-((6-methylpyridin-3-yl)methyl)phenyl)carbamate]	8.56	36.3
CC(O)(c1ccncc1)c1ccc(NC(=O)OCc2cncs2)cc1 (stereo not shown) [Compound 329, thiazol-5-ylmethyl (4-(1-hydroxy-1-(pyridin-4-yl)ethyl)phenyl)carbamate]	8.65	33.6
O=C(Cc1cnoc1)NCc1ccc(NC(=O)OCc2ccc(Cl)cc2)cc1 [Compound 330, (4-chlorophenyl)methyl N-(4-{[2-(1,2-oxazol-4-yl)acetamido]methyl}phenyl)carbamate]	8.66	46.3
Cc1ccc(Cc2ccc(NC(=O)OCc3ccc(F)cc3)cc2)cn1 [Compound 331, 4-fluorobenzyl (4-((6-methylpyridin-3-yl)methyl)phenyl)carbamate]	8.67	11.9

SMILES	AC1.4 Human [µM]	EC50 [µM]
CN1CCN(C(=O)Cc2ccc(NC(=O)OCc3ccc(Cl)cc3)cc2)CC1=O [Compound 332, (4-chlorophenyl)methyl N-{4-[2-(4-methyl-3-oxopiperazin-1-yl)-2-oxoethyl]phenyl}carbamate]	8.89	50.6
O=C(Nc1ccc(Cc2ccncc2)cc1)OCc1cnoc1 [Compound 333, isoxazol-4-ylmethyl (4-(pyridin-4-ylmethyl)phenyl)carbamate]	9.58	38.6
O=C(Cn1cccn1)NCc1ccc(NC(=O)OCc2ccc(Cl)cc2)cc1 [Compound 334, (4-chlorophenyl)methyl N-(4-{[2-(pyrazol-1-yl)acetamido]methyl}phenyl)carbamate]	9.87	9.33
O=C(Nc1ccc(Cc2nccs2)cc1)OCc1ccc(Cl)cc1 [Compound 336, 4-chlorobenzyl (4-(thiazol-2-ylmethyl)phenyl)carbamate]	10.07	24.3
CN([C@@H]1CCOC1)S(=O)(=O)c1ccc(NC(=O)OCc2ccc(Cl)cc2)cc1 [Compound 337, 4-chlorobenzyl (R)-(4-(N-methyl-N-(tetrahydrofuran-3-yl)sulfamoyl)phenyl)carbamate]	10.15	26.4
O=C(Cc1ccc(NC(=O)OCc2ccc(Cl)cc2)cc1)N[C@H]1CC[C@H](OC(F)(F)F)CC1 [Compound 338, (4-chlorophenyl)methyl N-[4-({[(1r,4r)-4-(trifluoromethoxy)cyclohexyl]carbamoyl}methyl)phenyl]carbamate]	10.44	18.4
O=C(Cc1ccc(NC(=O)OCc2ccc(Cl)cc2)cc1)NC1COC1 [Compound 339, 4-chlorobenzyl (4-(2-(oxetan-3-ylamino)-2-oxoethyl)phenyl)carbamate]	10.65	45.5
Cc1ocnc1C(=O)N(C)Cc1ccc(NC(=O)OCc2ccc(Cl)cc2)cc1 [Compound 340, (4-chlorophenyl)methyl N-(4-{[N-methyl-1-(5-methyl-1,3-oxazol-4-yl)formamido]methyl}phenyl)carbamate]	10.65	45.6
COc1ccc(COC(=O)Nc2ccc([C@H](C)C(=O)N3CCC[C@H]3CO)cc2)cc1 [Compound 341]	11.08	55.6
O=C(Nc1ccc(CNC(=O)c2ocnc2C2CC2)cc1)OCc1ccc(Cl)cc1 [Compound 343, (4-chlorophenyl)methyl N-(4-{[(4-cyclopropyl-1,3-oxazol-5-yl)formamido]methyl}phenyl)carbamate]	11.85	21.9
Cc1noc(Cc2ccc(NC(=O)OCc3ccc(Cl)cc3)cc2)n1 [Compound 344, (4-chlorophenyl)methyl N-{4-[(3-methyl-1,2,4-oxadiazol-5-yl)methyl]phenyl}carbamate]	13.04	34
Cn1nc(C(F)F)cc1C(=O)NCc1ccc(NC(=O)OCc2ccc(Cl)cc2)cc1 [Compound 345, (4-chlorophenyl)methyl N-[4-({[5-(difluoromethyl)-2-methylpyrazol-3-yl]formamido}methyl)phenyl]carbamate]	13.49	20.3
O=C1CN(C2COC2)[C@@H](c2ccc(NC(=O)OCc3ccc(Cl)cc3)cc2)CN1 [Compound 346, 4-chlorobenzyl (S)-(4-(1-(oxetan-3-yl)-5-oxopiperazin-2-yl)phenyl)carbamate]	13.52	45.3
CCc1ncoc1C(=O)NCc1ccc(NC(=O)OCc2ccc(Cl)cc2)cc1 [Compound 347, (4-chlorophenyl)methyl N-(4-{[(4-ethyl-1,3-oxazol-5-yl)formamido]methyl}phenyl)carbamate]	13.92	34.8
COCCN1CCC(c2ccc(NC(=O)OCc3cnco3)cc2)CC1 [Compound 348, 1,3-oxazol-5-ylmethyl N-{4-[1-(2-methoxyethyl)piperidin-4-yl]phenyl}carbamate]	14.47	35.9
O=C(Nc1ccc(Cc2ccncc2)cc1)OCc1ccncn1 [Compound 349, pyrimidin-4-ylmethyl (4-(pyridin-4-ylmethyl)phenyl)carbamate]	15.55	26
O=C(Nc1ccc(Cc2ccns2)cc1)OCc1ccc(Cl)cc1 [Compound 350, 4-chlorobenzyl (4-(isothiazol-5-ylmethyl)phenyl)carbamate]	20.27	44.4
O=C(Nc1ccc(Cc2cncs2)cc1)OCc1ccc(Cl)cc1 [Compound 351, 4-chlorobenzyl (4-(thiazol-5-ylmethyl)phenyl)carbamate]	22.18	37.3
CN(C1COC1)S(=O)(=O)c1ccc(NC(=O)OCc2ccc(Cl)cc2)cc1 [Compound 352, 4-chlorobenzyl (4-(N-methyl-N-(oxetan-3-yl)sulfamoyl)phenyl)carbamate]	22.88	46.3
